In PubChem BioAssay AID328 (DTP/NCI, 2004):
Several values for one entry are separate records, joined by “and”; a condition that tells them apart may be missing. Identical values can stand only once. Toxic doses and inconclusive results are not listed. Rule for the calls: active = survival T/C of 150% or more; inactive = T/C below 125% in these data.

Tested on: BDF1 mice, P388 leukemia ip, median survival T/C
Test: NCI In Vivo Anticancer Drug Screen. Data for tumor model P388 Leukemia (intraperitoneal) in B6D2F1 (BDF1) mice
Details: endpoint: median survival time, higher = longer survival
In short: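 Mice carrying the transplantable tumour receive compound or vehicle. Survival is followed in each arm, and the treated measure is divided by the vehicle measure.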

[1] = dose: 25.0 mg/kg/injection, schedule: Q01DX009 (ip), vehicle: saline
[2] = dose: 50.0 mg/kg/injection, schedule: Q01DX009 (ip), vehicle: saline
[3] = dose: 50.0 mg/kg/injection, schedule: Q01DX009 (ip), vehicle: saline with Tween-80
[4] = dose: 100.0 mg/kg/injection, schedule: Q01DX009 (ip), vehicle: saline with Tween-80
[5] = dose: 100.0 mg/kg/injection, schedule: Q04DX003 (ip), vehicle: Klucel (hydroxypropylcellulose) (HPC)
[6] = dose: 100.0 mg/kg/injection, schedule: Q04DX003 (ip), vehicle: saline with Tween-80
[7] = dose: 200.0 mg/kg/injection, schedule: Q01DX009 (ip), vehicle: saline with Tween-80
[8] = dose: 200.0 mg/kg/injection, schedule: Q04DX003 (ip), vehicle: Klucel (hydroxypropylcellulose) (HPC)
[9] = dose: 200.0 mg/kg/injection, schedule: Q04DX003 (ip), vehicle: saline with Tween-80
[10] = dose: 400.0 mg/kg/injection, schedule: Q04DX003 (ip), vehicle: Klucel (hydroxypropylcellulose) (HPC)
[11] = dose: 400.0 mg/kg/injection, schedule: Q04DX003 (ip), vehicle: saline with Tween-80
[12] = dose: 12.5 mg/kg/injection, schedule: Q01DX009 (ip), vehicle: saline
[13] = dose: 100.0 mg/kg/injection, schedule: Q01DX009 (ip), vehicle: saline
[14] = dose: 100.0 mg/kg/injection, schedule: Q04DX003 (ip), vehicle: saline
[15] = dose: 200.0 mg/kg/injection, schedule: Q01DX009 (ip), vehicle: saline
[16] = dose: 200.0 mg/kg/injection, schedule: Q04DX003 (ip), vehicle: saline
[17] = dose: 400.0 mg/kg/injection, schedule: Q01DX009 (ip), vehicle: saline
[18] = dose: 400.0 mg/kg/injection, schedule: Q04DX003 (ip), vehicle: saline
[19] = dose: 25.0 mg/kg/injection, schedule: Q01DX009 (ip), vehicle: saline with Tween-80
[20] = dose: 50.0 mg/kg/injection, schedule: Q04DX003 (ip), vehicle: saline with Tween-80
[21] = dose: 200.0 mg/kg/injection, schedule: Q01DX001 (ip), vehicle: saline with Tween-80

Measured: T/C

c1cc2c(c(NC3=NCCO3)c1)CCCC2
inactive: dose: 37.5 mg/kg/injection, schedule: Q01DX009 (ip), vehicle: saline with Tween-80 113 % of control | dose: 75.0 mg/kg/injection, schedule: Q01DX009 (ip), vehicle: saline with Tween-80 118 % of control | dose: 150.0 mg/kg/injection, schedule: Q01DX009 (ip), vehicle: saline with Tween-80 120 % of control

CC(=O)Nc1ccc(N=Nc2c(C)nn(C(=N)N)c2C)cc1
inactive: [1] 97 % of control | [2] 97 % of control

[CH3][Sn]([CH3])([CH3])[S]C(=S)N1CCOCC1
inactive: dose: 0.75 mg/kg/injection, schedule: Q01DX009 (ip), vehicle: Klucel (hydroxypropylcellulose) (HPC) 97 % of control

N#CC1c2ccccc2C=CN1C(=O)c1ccccc1 (stereo not drawn)
inactive: [3] 115 % of control | [4] 110 % of control | [5] 100 % of control | [6] 100 % of control | [7] 110 % of control | [8] 109 % of control | [9] 100 % of control | dose: 400.0 mg/kg/injection, schedule: Q01DX009 (ip), vehicle: saline with Tween-80 110 % of control | [10] 109 % of control | [11] 100 % of control

Nc1ccc(C(=O)O)c([N+](=O)[O-])c1
inactive: [12] 92 % of control | [1] 100 % of control | [2] 105 % of control and 118 % of control | dose: 50.0 mg/kg/injection, schedule: Q04DX003 (ip), vehicle: saline 99 % of control | [13] 94 % of control and 98 % of control | [14] 100 % of control | [15] 107 % of control | [16] 112 % of control | [17] 100 % of control | [18] 103 % of control

Cc1cc(Cl)ccc1Nc1sc(C(=O)c2cc3cc(Cl)ccc3o2)c(N)c1C#N
inactive: [3] 104 % of control | [4] 93 % of control | [7] 89 % of control

CC(=O)/C=C/c1ccco1
inactive: dose: 25.0 mg/kg/injection, schedule: Q01DX009 (ip), vehicle: DMSO 91 % of control | dose: 25.0 mg/kg/injection, schedule: Q04DX003 (ip), vehicle: DMSO 107 % of control | dose: 50.0 mg/kg/injection, schedule: Q01DX009 (ip), vehicle: DMSO 91 % of control | dose: 50.0 mg/kg/injection, schedule: Q04DX003 (ip), vehicle: DMSO 92 % of control

O=C1CCC(=O)N1CC(O)COc1ccc(Cl)cc1 (stereo not drawn)
inactive: [6] 100 % of control | [9] 95 % of control | [11] 100 % of control

O=c1[nH]c2cc(F)ccc2o1
inactive: [5] 100 % of control | [8] 95 % of control | [10] 100 % of control

CC(C)(C)[N]1[Si](C)(C)[N](C(C)(C)C)[Sn]12[S][Sn]1([S]2)[N](C(C)(C)C)[Si](C)(C)[N]1C(C)(C)C
inactive: [3] 100 % of control | [4] 94 % of control | [7] 86 % of control

CS(=O)(=O)Nc1ccc(NS(C)(=O)=O)c(SCc2ccccc2)c1
inactive: dose: 100.0 mg/kg/injection, schedule: Q01DX001 (ip), vehicle: Klucel (hydroxypropylcellulose) (HPC) 100 % of control | dose: 200.0 mg/kg/injection, schedule: Q01DX001 (ip), vehicle: Klucel (hydroxypropylcellulose) (HPC) 100 % of control | dose: 400.0 mg/kg/injection, schedule: Q01DX001 (ip), vehicle: Klucel (hydroxypropylcellulose) (HPC) 100 % of control

CC(C)(/C=C/c1ccccc1)C(=O)O
inactive: [3] 95 % of control | [4] 102 % of control | [7] 100 % of control

CCCCC(C)(CN(C)C)C(=O)/C=C/c1ccc(Cl)c(Cl)c1 (stereo not drawn)
inactive: dose: 6.25 mg/kg/injection, schedule: Q01DX009 (ip), vehicle: saline 112 % of control | [12] 120 % of control | [1] 118 % of control

CC(C)(C)c1cc(I)c(O)c(CN)c1
inactive: dose: 12.5 mg/kg/injection, schedule: Q01DX009 (ip), vehicle: saline with Tween-80 105 % of control | [12] 95 % of control | [19] 109 % of control | [1] 104 % of control | [3] 114 % of control | [2] 104 % of control | [4] 114 % of control

C=C(C)C(=O)NCC(=O)NC(Cc1ccccc1)C(=O)Oc1ccc([N+](=O)[O-])cc1 (stereo not drawn)
inactive: [19] 97 % of control | [3] 101 % of control | [4] 99 % of control

COc1ccc(/C=N/NC(=O)C[n+]2ccccc2)c(OC)c1
inactive: [19] 104 % of control | dose: 25.0 mg/kg/injection, schedule: Q04DX003 (ip), vehicle: saline with Tween-80 118 % of control | [3] 109 % of control | [20] 104 % of control | [4] 100 % of control | [6] 104 % of control

C(=N\Nc1nc2ccccc2s1)/c1ccccc1
inactive: dose: 100.0 mg/kg/injection, schedule: Q01DX009 (ip), vehicle: Klucel (hydroxypropylcellulose) (HPC) 95 % of control | dose: 200.0 mg/kg/injection, schedule: Q01DX009 (ip), vehicle: Klucel (hydroxypropylcellulose) (HPC) 109 % of control | dose: 400.0 mg/kg/injection, schedule: Q01DX009 (ip), vehicle: Klucel (hydroxypropylcellulose) (HPC) 90 % of control

COc1ccc2nc(C)c(COC(C)=O)c(Cl)c2c1
inactive: [2] 104 % of control | [14] 104 % of control | [15] 104 % of control | [16] 105 % of control | [17] 101 % of control | [18] 90 % of control

Nc1nc(C=O)c(CCc2ccccc2)c(=O)[nH]1
inactive: [20] 113 % of control

N#CCCN1CCCCCC1
inactive: dose: 15.0 mg/kg/injection, schedule: Q01DX009 (ip), vehicle: saline with Tween-80 104 % of control | dose: 30.0 mg/kg/injection, schedule: Q01DX009 (ip), vehicle: saline with Tween-80 89 % of control | dose: 60.0 mg/kg/injection, schedule: Q01DX009 (ip), vehicle: saline with Tween-80 98 % of control

O=C1NC(O)c2cc(CO)ccc2O1 (stereo not drawn)
inactive: dose: 50.0 mg/kg/injection, schedule: Q01DX005 (ip), vehicle: saline with Tween-80 100 % of control | dose: 100.0 mg/kg/injection, schedule: Q01DX005 (ip), vehicle: saline with Tween-80 104 % of control | dose: 200.0 mg/kg/injection, schedule: Q01DX005 (ip), vehicle: saline with Tween-80 109 % of control

CC(C)(C)OC(=O)NNC(=O)C(CSC(c1ccccc1)c1ccccc1)N1C(=O)c2ccccc2C1=O (stereo not drawn)
inactive: [5] 95 % of control | [8] 100 % of control | [10] 90 % of control

CCOC(=O)C(CSCSC)NC(=O)/C=C/c1cccnc1 (stereo not drawn)
inactive: [13] 96 % of control | [6] 91 % of control | [15] 106 % of control | [9] 91 % of control | [17] 104 % of control | [11] 120 % of control

CCCCOC(=O)c1ccc(NC(=O)NCCC)cc1
inactive: [6] 104 % of control | [9] 100 % of control | [11] 109 % of control

CC(O)(c1ccc(Br)cc1)C(c1ccccc1)c1ccccn1 (stereo not drawn)
inactive: [1] 104 % of control | [2] 100 % of control | [13] 86 % of control | [14] 111 % of control | [15] 111 % of control | [16] 104 % of control | [17] 101 % of control | [18] 109 % of control

CC1CCC2(C(=O)O)CCC3(C)C(=CCC4C5(C)CC(O)C(O)C(C)(C(=O)O)C5CCC43C)C2C1(C)O (stereo not drawn)
inactive: dose: 100.0 mg/kg/injection, schedule: Q01DX001 (ip), vehicle: saline with Tween-80 104 % of control | [21] 100 % of control

Cc1ccc(S(=O)(=O)NC(=O)Oc2nc3cc(Cl)ccc3o2)cc1
inactive: [3] 99 % of control | [4] 114 % of control | [7] 96 % of control

Cc1ccccc1OS(=O)(=O)C(F)(F)C(F)(F)C(F)(F)C(F)(F)F
inactive: [2] 100 % of control | [13] 100 % of control | [15] 106 % of control

CSc1ncnc2nc[nH]c12
inactive: dose: 25.0 mg/kg/injection, schedule: Q01DX010 (ip), vehicle: saline 100 % of control | dose: 50.0 mg/kg/injection, schedule: Q01DX010 (ip), vehicle: saline 100 % of control | dose: 100.0 mg/kg/injection, schedule: Q01DX010 (ip), vehicle: saline 95 % of control and 100 % of control | dose: 200.0 mg/kg/injection, schedule: Q01DX010 (ip), vehicle: saline 104 % of control and 105 % of control

Cc1ccc2c(/C=C/c3ccc(N(C)C)cc3)ccnc2c1C
inactive: [4] 120 % of control

O=C(Nc1ccccc1C(F)(F)F)Nc1cccc2ccccc12
inactive: [21] 90 % of control | dose: 400.0 mg/kg/injection, schedule: Q01DX001 (ip), vehicle: saline with Tween-80 86 % of control
